Experimental findings from patent US20040192888A1, “Method of preparing peptide with high yield and high purity using2-(4-nitrophenylsulfonyl) ethoxycarbonyl-amino acids” (priority 2001, published 2004) are described below.

Each structure is given as a SMILES string.

A short description of the series: Dissolution comparison of Nα-Nsc-amino acids and Nα-Fmoc-amino acids. More on the design: key: ◯: dissolution; Δ: partial dissolution; X: no dissolution. Format: physicochemical. Conditions: Nsc-amino acid; for Dissolved state, Nsc, column B / Dissolved state, Nsc, column A: 100 mg in 1 ml dichloromethane; for Dissolved state, Nsc, column B / Dissolved state, Nsc, column D: heated at 40° C. for 5 minutes, then room temperature 5 minutes; for Dissolved state, Nsc, column A / Dissolved state, Nsc, column C: stirring 5 minutes; for Dissolved state, Nsc, column D / Dissolved state, Nsc, column C: 15% DMF/DCM. How it is done: Since only amino acids fully dissolved in a solvent can be used in acylation reactions, the following tests were performed to find solvent conditions in which amino acids can be completely dissolved.
100 mg of each of Nα-Nsc-amino acids and Nα-Fmoc-amino acids shown in Table 1, below, were precisely weighed and added to two containers added with 1 ml of dichloromethane (hereinafter, referred to as “DCM”), followed by stirring for 5 minutes. The dissolved states of amino acids were observed and are expressed in column A of the following Table 1.
Other amino acids, exclusive of totally dissolved amino acids, were heated in an oven at 40° C. for 5 minutes, and allowed to stand at room temperature for 5 minutes. Their dissolved states are shown in column B.
As such, the undissolved amino acids were dissolved in 15% dimethylformamide (hereinafter, referred to as “DMF”)/DCM in the same manner as in the case of the above column A, and their dissolved states are presented in column C.
Still undissolved amino acids were heated in an oven at 40° C. for 5 minutes, and allowed to stand at room temperature for 5 minutes. Their dissolved states were observed and are shown in column D.

As to `CC(C)(C)OCC(NC(=O)OCCS(=O)(=O)c1ccc([N+](=O)[O-])cc1)C(=O)O` (centres unmarked) [Nsc-Ser], the “Dissolved state, Nsc, column B” value is listed as “◯”; the “Dissolved state, Nsc, column A” value is “◯”; the “Dissolved state, Nsc, column D” value is on record as “◯”; the “Dissolved state, Nsc, column C” value is reported as “◯”.
For `CC(OC(C)(C)C)C(NC(=O)OCCS(=O)(=O)c1ccc([N+](=O)[O-])cc1)C(=O)O` (centres unmarked) [Nsc-Thr], the “Dissolved state, Nsc, column B” value is “◯”; the “Dissolved state, Nsc, column A” value is given as “◯”; the “Dissolved state, Nsc, column D” value is “◯”; the “Dissolved state, Nsc, column C” value was “◯”.
Regarding `O=C(N[C@@H](Cc1c[nH]c2ccccc12)C(=O)O)OCCS(=O)(=O)c1ccc([N+](=O)[O-])cc1` [Nsc-Trp], the “Dissolved state, Nsc, column B” value is reported as “X”; the “Dissolved state, Nsc, column A” value is “X”; the “Dissolved state, Nsc, column D” value is recorded as “◯”; the “Dissolved state, Nsc, column C” value is “Δ”.
With `CC(C)(C)Oc1ccc(CC(NC(=O)OCCS(=O)(=O)c2ccc([N+](=O)[O-])cc2)C(=O)O)cc1` (centres unmarked) [Nsc-Tyr], the “Dissolved state, Nsc, column B” value is “◯”; the “Dissolved state, Nsc, column A” value is recorded as “◯”; the “Dissolved state, Nsc, column D” value is “◯”; the “Dissolved state, Nsc, column C” value is recorded as “◯”.
For `CC(C)C(NC(=O)OCCS(=O)(=O)c1ccc([N+](=O)[O-])cc1)C(=O)O` (centres unmarked) [Nsc-Val], the “Dissolved state, Nsc, column B” value is “◯”; the “Dissolved state, Nsc, column A” value is given as “◯”; the “Dissolved state, Nsc, column D” value is “◯”; the “Dissolved state, Nsc, column C” value is “◯”.
